Common to all, as to type: biochemical, Pseudomonas sp. MV37
Test [1] has as its system purified TPM. As to the kind of experiment: Specificity to amino group donor (dabsylated alanine quantification, Example 10). As to conditions: pyruvic acid 14 mM, pH 7.5, 30° C., 1 hour; for Relative activity (%): amino group donor 14 mM (28 mM racemic body), n-butylamine = 100%. The protocol: (§1) Specifically, first, a purified polypeptide is added to a substrate solution with the following composition so that the volume thereof is 400 μl. After 1 hour of reaction at 30° C., 20 μl of 3N hydrochloric acid is added to stop the reaction. Next, 80 μl of a 0.2 M aqueous sodium carbonate solution and 200 μl of an acetone solution of 3.3 mg/mL Dabsyl chloride are separately added to 20 μl of the thus obtained reaction solution, followed by 10 minutes of reaction at 70° C. Acetic acid (20 μl) is added to the reaction solution and then the solution is stirred. The reaction solution is analyzed by HPLC under the following conditions, and then the quantity of dabsylated alanine is determined. In addition, the concentration of a purified polypeptide to be used herein is adjusted so that the amount of alanine generated is 2.8 mM or less as determined by the determination method (hereinafter, referred to as activity assay B).
The purified TPM obtained in Example 7 was examined to determine its specificity to amino group donors. First, 20 μL of a purified TPM solution was added to 380 μL of a substrate solution with the composition given below. After 1 hour of reaction at 30° C., 20 μL, of 3 N hydrochloric acid was added to stop the reaction. Next, 80 μl of an aqueous 0.2 M sodium carbonate solution and 200 μl of an acetone solution of 3.3 mg/mL Dabsyl chloride were added to 20 μL, of the thus obtained reaction solution, followed by 10 minutes of reaction at 70° C. 20 μL of acetic acid was added to the reaction solution. The reaction solution was stirred and then analyzed by HPLC under the following conditions, and thus the quantity of dabsylated alanine was determined.
(§2) [High Performance Liquid Chromatography (HPLC) Analysis Conditions] • Column: Deverosil ODS-HG-3 (NOMURA CHEMICAL) • Eluent: acetonitrile/0.045 M acetate buffer (pH4.1)=35/65 (volume ratio) • Flow rate: 0.9 mL/minute • Detection: 254 nm

Test [2] concerns purified TPM. Description: Specificity to amino group receptor (Example 12). Conditions: (S)-1-phenethylamine 25 mM, pH 7.0, 30° C., 5 minutes. As to the method:
A substrate solution was added to the purified TPM solution, so that the final concentrations of the components would be as follows. After 5 minutes of reaction at 30° C., 6N hydrochloric acid was added in an amount of 50 μL per mL of the reaction solution, so as to stop the reaction. The reaction solution was analyzed by HPLC under the following conditions.
[High Performance Liquid Chromatography (HPLC) Analysis Conditions] • Column: Wakosil-II 5C18 RS (Wako Pure Chemical Industries, Ltd.) • Eluent: 10 mM potassium phosphate buffer (pH5.3): acetonitrile=3:2 • Flow rate: 1 mL/minute • Detection: 241 nm

The test system of test [3] is purified TPM. As to the kind of experiment: Specificity 2 to amino group donor: typical substrates of ω-amino acid transaminase (Example 11). Conditions: pyruvic acid 14 mM; for activity of TPM for the amino group donor: amino compound 14 mM, pH 7.5; for Relative activity (%): amino group donor 14 mM, pH 7.5, 30° C., 1 hour, (S)-1-phenethylamine = 100. The protocol: as §1
The purified TPM obtained in Example 7 was examined to determine its reactivity to typical substrates of ω-amino acid transaminase. First, 20 μL of a purified TPM solution was added to 380 μL of a substrate solution with the composition given below. After 1 hour of reaction at 30° C., 20 μL of 3 N hydrochloric acid was added to stop the reaction. Next, 80 μL of a 0.2 M aqueous sodium carbonate solution and 200 μL of an acetone solution of 3.3 mg/mL Dabsyl chloride were separately added to 20 μL of the thus obtained reaction solution, followed by 10 minutes of reaction at 70° C. 20 μL of acetic acid was added to the solution and then it was stirred. The reaction solution was analyzed by HPLC under the following conditions, and thus the quantity of dabsylated alanine was determined.
as §2

As to `CCC(C)N` (racemic) [±2-butylamine], in test [1], the “Relative activity (%)” value was determined as 67% and the “activity of TPM for the amino group donor” value (from here on “activity of TPM”) is “exhibits its activity”.

For `O=C1CCN(Cc2ccccc2)C1` [1-benzyl-3-pyrrolidinone], in test [2] (substrate concentration 2.5 mM), the “Relative activity (%)” value amounted to 4.7%.

Take `CC(=O)c1ccccn1` [2-acetylpyridine]: the “Relative activity (%)” value in test [2] (substrate concentration 2.5 mM) turned out to be 16%.

For `CCCCCC(C)=O` [2-heptanone], in test [2] (substrate concentration 2.5 mM), the “Relative activity (%)” value was determined as 4.6%.

On to `O=C(O)CCC(=O)C(=O)O` [2-ketoglutaric acid], for which the “Relative activity (%)” value in test [2] (substrate concentration 25 mM) was 0%.

Turning to `O=C1CCc2ccccc2C1` [2-tetralone], the “Relative activity (%)” value in test [2] (substrate concentration 2.5 mM) was 17%.

As for `NCCCC(=O)O` [4-aminobutyric acid], in test [3], the “activity of TPM” value is listed as “does not exhibit activity” and the “Relative activity (%)” value is 0%.

For `C[C@H](N)c1ccccc1` [(S)-α-phenethylamine], the “Relative activity (%)” value in test [3] is reported as 100%.

For the compound `CC(=O)c1cnccn1` [Acetylpyrazine], in test [2] (substrate concentration 2.5 mM), the “Relative activity (%)” value is given as 23%.

As to `CCOC(=O)CC(=O)c1ccccc1` [Benzoylacetic acid ethyl], the “Relative activity (%)” value in test [2] (substrate concentration 2.5 mM) is 13%.

On to `O=C(Cc1ccccc1)c1ccccc1` [Benzyl phenyl ketone], for which, in test [2] (substrate concentration 2.5 mM), the “Relative activity (%)” value came out at 3.8%.

Consider `CC(=O)CCc1ccccc1` [Benzylacetone], for which the “Relative activity (%)” value in test [2] (substrate concentration 2.5 mM) came to 12%.

As to `CCCC=O` [Butylaldehyde], the “Relative activity (%)” value in test [2] (substrate concentration 2.5 mM) came out at 7%.

On to `O=CC(=O)O` [Glyoxalic acid], for which the “Relative activity (%)” value in test [2] (substrate concentration 25 mM) worked out at 40%.

In the case of `NCCCC[C@H](N)C(=O)O` [L-lysine], in test [3], the “activity of TPM” value is reported as “does not exhibit activity” and the “Relative activity (%)” value was 0%.

On to `NCCCCN` [Putrescine], for which, in test [3], the “activity of TPM” value is “does not exhibit activity” and the “Relative activity (%)” value is 0%.

For `CC(=O)C(=O)O` [Pyruvic acid], the “Relative activity (%)” value in test [2] (substrate concentration 25 mM) was determined as 100%.

For the compound `NCCS(=O)(=O)O` [Taurine], in test [3], the “activity of TPM” value is on record as “does not exhibit activity” and the “Relative activity (%)” value was 0%.

As for `NCc1ccccc1` [benzylamine], in test [1], the “Relative activity (%)” value was determined as 95% and the “activity of TPM” value was “exhibits its activity”.

Turning to `CCCCN` [n-butylamine], in test [1], the “Relative activity (%)” value turned out to be 100% and the “activity of TPM” value is “exhibits its activity”.

Consider `NCCC(=O)O` [β-alanine], for which, in test [3], the “activity of TPM” value is given as “does not exhibit activity” and the “Relative activity (%)” value is 0%.

The record behind these values is US9481870B2, “Nucleic acid encoding a polypeptide having aminotransferase activity, vectors and host cells comprising the nucleic acid” (KANEKA CORPORATION, priority 2010, dated 2016).
